Laboratory results: ChEMBL document CHEMBL6103578, “Design and synthesis three novel series of derivatives using natural acetylcholinesterase inhibitor-RLMS as template and in vitro, in vivo and in silico activities verification” (Eur J Med Chem, 2025)
Active and inactive are the calls of the source. No cut-off for these calls is given here.

Legend:
[1] = molecular target: T1, Acetylcholinesterase (Homo sapiens, UniProt P22303); assay: Inhibition of AChE (unknown origin) using ATCI as substrate preincubated for 20 mins followed by substrate addition measured after 30 mins by DTNB assay
[2] = test system: SH-SY5Y; assay: Neuroprotective effect against H2O2-induced cell injury in human SH-SY5Y cells assessed as cell survival at 25 to 100 uM preincubated for 1 hr followed by H2O2 addition measured after 2 hrs by MTT assay (reference value: 57.76 %); format: functional; details: dose 25-100 µM, time 3 hrs
[3] = molecular target: T1, Acetylcholinesterase; assay: Mixed competitive inhibition of AChE (unknown origin) at 2.5 to 15 uM by DTNB assay; details: dose 2.5-15 µM
[4] = test system: SH-SY5Y; assay: Neuroprotective effect against H2O2-induced cell injury in human SH-SY5Y cells assessed as cell survival at 25 uM preincubated for 1 hr followed by H2O2 addition measured after 2 hrs by MTT assay (reference value: 57.76 %); format: functional; details: time 3 hrs, read-out: Activity

T1 sequence (P22303 whole entry): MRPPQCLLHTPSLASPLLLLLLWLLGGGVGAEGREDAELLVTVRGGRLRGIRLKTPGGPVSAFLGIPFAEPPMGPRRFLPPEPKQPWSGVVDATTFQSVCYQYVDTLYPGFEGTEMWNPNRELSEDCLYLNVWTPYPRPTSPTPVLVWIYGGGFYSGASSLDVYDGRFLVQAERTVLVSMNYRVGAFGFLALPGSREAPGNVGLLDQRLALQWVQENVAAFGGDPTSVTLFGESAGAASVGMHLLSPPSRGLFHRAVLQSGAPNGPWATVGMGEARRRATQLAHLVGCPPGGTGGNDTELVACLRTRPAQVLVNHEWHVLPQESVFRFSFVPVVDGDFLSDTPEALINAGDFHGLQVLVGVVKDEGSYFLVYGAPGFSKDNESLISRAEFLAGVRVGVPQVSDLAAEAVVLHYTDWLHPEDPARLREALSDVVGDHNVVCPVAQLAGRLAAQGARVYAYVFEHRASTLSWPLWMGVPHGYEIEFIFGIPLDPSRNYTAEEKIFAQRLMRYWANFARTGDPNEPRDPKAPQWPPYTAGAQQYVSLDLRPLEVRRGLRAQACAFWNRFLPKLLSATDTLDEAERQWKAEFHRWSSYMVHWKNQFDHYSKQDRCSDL

C[C@@H]1CC[C@]2(C(=O)O)CC[C@]3(C)C(=CC[C@@H]4[C@@]5(C)C[C@@H](OC(=O)c6ccc(Cl)cc6)[C@H](OC(=O)c6ccc(Cl)cc6)[C@@](C)(COC(=O)c6ccc(Cl)cc6)[C@@H]5CC[C@]43C)[C@@H]2[C@]1(C)O
IC50 [1]: 5.91 µM | Activity [2]: >57.76%

C[C@@H]1CC[C@]2(C(=O)O)CC[C@]3(C)C(=CC[C@@H]4[C@@]5(C)C[C@@H](OC(=O)CCc6ccccc6)[C@H](O)[C@@](C)(CO)[C@@H]5CC[C@]43C)[C@@H]2[C@]1(C)O
IC50 [1]: 11.5 µM | Activity [2]: >57.76%

C[C@@H]1CC[C@]2(C(=O)NCc3ccc(Br)cc3)CC[C@]3(C)C(=CC[C@@H]4[C@@]5(C)C[C@@H](O)[C@H](O)[C@@](C)(CO)[C@@H]5CC[C@]43C)[C@@H]2[C@]1(C)O
IC50 [1]: 84.5 µM | Activity [2]: >57.76%

C[C@@H]1CC[C@]2(C(=O)O)CC[C@]3(C)C(=CC[C@@H]4[C@@]5(C)C[C@@H](OC(=O)CCc6ccccc6)[C@H](OC(=O)CCc6ccccc6)[C@@](C)(CO)[C@@H]5CC[C@]43C)[C@@H]2[C@]1(C)O
IC50 [1]: 5.84 µM | inhibition [3]: Active | Activity [2]: >57.76% | viability at 25 µM [4]: 72.5%

C[C@@H]1CC[C@]2(C(=O)NCc3cccc(Br)c3)CC[C@]3(C)C(=CC[C@@H]4[C@@]5(C)C[C@@H](O)[C@H](O)[C@@](C)(CO)[C@@H]5CC[C@]43C)[C@@H]2[C@]1(C)O
IC50 [1]: 78 µM | Activity [2]: >57.76% | viability at 25 µM [4]: 72.5%

CCCC(=O)OC[C@]1(C)C=C(C=O)[C@@]2(C)[C@H]1CC[C@]1(C)[C@@H]2CC=C2[C@H]3[C@](C(=O)O)(CC[C@@H](C)[C@@]3(C)O)CC[C@]21C
IC50 [1]: > 100 µM | Activity [2]: <57.76%

C[C@@H]1CC[C@]2(C(=O)O)CC[C@]3(C)C(=CC[C@@H]4[C@@]5(C)C[C@@H](OC(=O)c6ccc(Cl)cc6)[C@H](OC(=O)c6ccc(Cl)cc6)[C@@](C)(CO)[C@@H]5CC[C@]43C)[C@@H]2[C@]1(C)O
IC50 [1]: 21.2 µM | Activity [2]: >57.76% | viability at 25 µM [4]: 72.5%

C[C@@H]1CC[C@]2(C(=O)NCc3ccc(F)cc3)CC[C@]3(C)C(=CC[C@@H]4[C@@]5(C)C[C@@H](O)[C@H](O)[C@@](C)(CO)[C@@H]5CC[C@]43C)[C@@H]2[C@]1(C)O
IC50 [1]: > 100 µM | Activity [2]: <57.76%

C[C@@H]1CC[C@]2(C(=O)O)CC[C@]3(C)C(=CC[C@@H]4[C@@]5(C)C(C=O)=C[C@@](C)(CO)[C@@H]5CC[C@]43C)[C@@H]2[C@]1(C)O
IC50 [1]: > 100 µM | Activity [2]: >57.76%

C[C@@H]1CC[C@]2(C(=O)NCCc3ccc(Cl)c(Cl)c3)CC[C@]3(C)C(=CC[C@@H]4[C@@]5(C)C[C@@H](O)[C@H](O)[C@@](C)(CO)[C@@H]5CC[C@]43C)[C@@H]2[C@]1(C)O
IC50 [1]: > 100 µM | Activity [2]: >57.76%

C[C@@H]1CC[C@]2(C(=O)NCCc3c[nH]c4ccccc34)CC[C@]3(C)C(=CC[C@@H]4[C@@]5(C)C[C@@H](O)[C@H](O)[C@@](C)(CO)[C@@H]5CC[C@]43C)[C@@H]2[C@]1(C)O
IC50 [1]: 51.3 µM | Activity [2]: >57.76% | viability at 25 µM [4]: 72.5%

C[C@@H]1CC[C@]2(C(=O)NCc3ccccc3)CC[C@]3(C)C(=CC[C@@H]4[C@@]5(C)C[C@@H](O)[C@H](O)[C@@](C)(CO)[C@@H]5CC[C@]43C)[C@@H]2[C@]1(C)O
IC50 [1]: 65.1 µM | Activity [2]: >57.76% | viability at 25 µM [4]: 72.5%

CCCCCC(=O)OC[C@]1(C)C=C(C=O)[C@@]2(C)[C@H]1CC[C@]1(C)[C@@H]2CC=C2[C@H]3[C@](C(=O)O)(CC[C@@H](C)[C@@]3(C)O)CC[C@]21C
IC50 [1]: > 100 µM | Activity [2]: >57.76%

C[C@@H]1CC[C@]2(C(=O)NCc3cccc(Cl)c3)CC[C@]3(C)C(=CC[C@@H]4[C@@]5(C)C[C@@H](O)[C@H](O)[C@@](C)(CO)[C@@H]5CC[C@]43C)[C@@H]2[C@]1(C)O
IC50 [1]: 63 µM | Activity [2]: >57.76%

C[C@@H]1CC[C@]2(C(=O)O)CC[C@]3(C)C(=CC[C@@H]4[C@@]5(C)C[C@@H](O)OCC(C)(C=O)[C@@H]5CC[C@]43C)[C@@H]2[C@]1(C)O (stereo not given in full)
IC50 [1]: > 100 µM | Activity [2]: >57.76%

C[C@@H]1CC[C@]2(C(=O)NCc3cccc(F)c3)CC[C@]3(C)C(=CC[C@@H]4[C@@]5(C)C[C@@H](O)[C@H](O)[C@@](C)(CO)[C@@H]5CC[C@]43C)[C@@H]2[C@]1(C)O
IC50 [1]: > 100 µM | Activity [2]: <57.76%

C[C@@H]1CC[C@]2(C(=O)O)CC[C@]3(C)C(=CC[C@@H]4[C@@]5(C)C[C@@H](OC(=O)c6ccc(C(F)(F)F)cc6)[C@H](OC(=O)c6ccc(C(F)(F)F)cc6)[C@@](C)(CO)[C@@H]5CC[C@]43C)[C@@H]2[C@]1(C)O
IC50 [1]: 43.4 µM | Activity [2]: >57.76%
